Data on 16 compounds can be found in ChEMBL document CHEMBL3046666, “Design, synthesis, and biological evaluation of benzofuran derivatives as ET receptor antagonists” (Med Chem Res, 2013).

The source made the active and inactive calls. The calls are words filed in the database; no cut-off is given here. Square brackets hold non-standard residues; d marks the D form. Peptide text beside a SMILES is read from it.

Test [1] addresses T1, Endothelin-1 receptor (Rattus norvegicus) (UniProt P26684).
T1 sequence (whole entry): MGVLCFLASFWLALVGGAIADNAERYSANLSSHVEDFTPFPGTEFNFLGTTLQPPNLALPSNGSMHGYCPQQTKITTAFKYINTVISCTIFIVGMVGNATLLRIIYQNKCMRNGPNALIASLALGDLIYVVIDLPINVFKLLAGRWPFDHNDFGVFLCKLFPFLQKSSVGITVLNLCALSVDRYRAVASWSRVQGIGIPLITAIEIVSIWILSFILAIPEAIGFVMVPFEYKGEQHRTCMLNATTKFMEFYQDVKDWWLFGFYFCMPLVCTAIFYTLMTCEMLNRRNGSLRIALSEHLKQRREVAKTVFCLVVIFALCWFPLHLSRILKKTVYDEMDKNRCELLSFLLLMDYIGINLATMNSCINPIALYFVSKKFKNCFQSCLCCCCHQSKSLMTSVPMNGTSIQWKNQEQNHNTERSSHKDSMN
Put plainly: Antagonist activity at ETA receptor in Sprague-Dawley Rattus norvegicus (rat) thoracic aortic ring assessed as inhibition of ET1-induced thoracic aortic ring contraction at 10 uM after 30 min relative to control.

In test [2] the target is T2, Endothelin receptor type B (Rattus norvegicus, UniProt P21451).
T2 sequence (P21451 whole entry): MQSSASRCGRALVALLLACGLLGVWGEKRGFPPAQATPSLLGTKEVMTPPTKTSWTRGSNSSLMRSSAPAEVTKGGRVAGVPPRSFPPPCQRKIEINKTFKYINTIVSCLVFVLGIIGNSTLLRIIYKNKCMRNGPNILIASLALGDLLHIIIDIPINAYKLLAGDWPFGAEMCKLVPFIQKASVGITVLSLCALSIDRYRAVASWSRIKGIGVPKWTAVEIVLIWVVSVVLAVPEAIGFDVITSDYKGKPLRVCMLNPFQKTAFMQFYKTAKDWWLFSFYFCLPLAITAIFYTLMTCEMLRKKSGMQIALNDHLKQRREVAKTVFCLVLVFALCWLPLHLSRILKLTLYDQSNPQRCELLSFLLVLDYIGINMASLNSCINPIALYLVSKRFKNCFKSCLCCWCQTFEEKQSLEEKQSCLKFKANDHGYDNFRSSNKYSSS
The test can be described thus: Displacement of [125I]ET-1 from ETB receptor in Sprague-Dawley Rattus norvegicus (rat) myocardium after 1 hr. For orientation: In a radioligand displacement assay an active substance lowers the binding of a labelled ligand.

The target in test [3] is T3, Endothelin-1 receptor (Rattus norvegicus, UniProt P26684).
T3 sequence (P26684 whole entry): T1 sequence (whole entry)
The test can be described thus: Displacement of [125I]ET-1 from ETA receptor in Sprague-Dawley Rattus norvegicus (rat) myocardium after 1 hr.

For test [4], the species on record is Rattus norvegicus. The test can be described thus: Selectivity Rattus norvegicus (rat)io of IC50 for ETB receptor in Sprague-Dawley Rattus norvegicus (rat) myocardium to IC50 for ETA receptor in Sprague-Dawley Rattus norvegicus (rat) myocardium. In kind it is tissue-based.
The subject of test [5] is Rattus norvegicus. Put plainly: Antihypertensive activity in hypoxic pulmonary arterial Sprague-Dawley Rattus norvegicus (rat) model assessed as decrease in hypoxia-induced right ventricular systolic pressure at 10 mg/kg, po administered for 28 days measured on day 29 by hemodynamic analyzer relative to untreated control. In kind it is functional, organism-based. Also on record: dose 10 mg/kg. Conditions: Heart right ventricle.

The test system of test [6] is Rattus norvegicus. Put plainly: Antihypertensive activity in hypoxic pulmonary arterial Sprague-Dawley Rattus norvegicus (rat) model assessed as decrease in hypoxia-induced central vein pressure at 10 mg/kg, po administered for 28 days measured on day 29 by hemodynamic analyzer relative to untreated control. Details: dose 10 mg/kg. Conditions: Artery. The class given is functional, organism-based.

The target of test [7] is T4, Endothelin-1 receptor (Homo sapiens, UniProt P25101).
T4 sequence (P25101 whole entry): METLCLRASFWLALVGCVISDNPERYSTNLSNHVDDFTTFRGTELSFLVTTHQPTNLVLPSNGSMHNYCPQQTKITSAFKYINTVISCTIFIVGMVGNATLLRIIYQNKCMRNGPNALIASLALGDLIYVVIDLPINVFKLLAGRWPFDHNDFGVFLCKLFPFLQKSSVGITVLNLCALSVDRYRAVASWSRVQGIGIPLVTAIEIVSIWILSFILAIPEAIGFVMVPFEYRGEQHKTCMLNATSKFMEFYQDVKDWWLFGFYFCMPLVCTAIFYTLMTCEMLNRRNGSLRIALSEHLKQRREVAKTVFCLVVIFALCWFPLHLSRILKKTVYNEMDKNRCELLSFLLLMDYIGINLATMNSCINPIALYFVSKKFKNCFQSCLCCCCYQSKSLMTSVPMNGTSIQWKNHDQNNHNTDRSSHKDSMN
The test can be described thus: Antagonist activity at Homo sapiens (human) ETA receptor.

The target of test [8] is T4, Endothelin-1 receptor. The test can be described thus: Antagonist activity at ETA receptor (unknown origin).
The test system of test [9] is Rattus norvegicus. The test can be described thus: Antihypertensive activity in po dosed hypoxic pulmonary arterial Sprague-Dawley Rattus norvegicus (rat) model assessed as decrease in hypoxia-induced central vein pressure administered for 28 days measured on day 29 by hemodynamic analyzer relative to untreated control. The class given is functional, organism-based. Conditions: Artery.

Test [10] concerns Rattus norvegicus. Put plainly: Antihypertensive activity in po dosed hypoxic pulmonary arterial Sprague-Dawley Rattus norvegicus (rat) model assessed as decrease in hypoxia-induced right ventricular systolic pressure administered for 28 days measured on day 29 by hemodynamic analyzer relative to untreated control. In kind it is functional, organism-based. Conditions: Heart right ventricle.

The term inhibition denotes the percentage by which the read-out fell short of the control. For `Cc1c(C(=O)O)oc2cccc(OCCOc3cccc(Cl)c3)c12`, in test [1], the inhibition stood at 21.7%.

As a reminder, the IC50 is the concentration at which inhibition is half-maximal. Lower therefore signals greater potency in that assay. `Cc1c(C(=O)O)oc2cccc(OCc3ccc4nonc4c3)c12`: the IC50 in test [2] stood at 1070 nM; in [3], 39 nM. Further, the inhibition in test [1] came out at 70%. The Ratio IC50 in test [4] amounted to 27.

For `COC(=O)C1=C(C)NC(C)=C(C(=O)OC)C1c1ccccc1[N+](=O)[O-]`, the outcome in test [5] and in test [6] was Active.

For the compound `CCCCOc1cccc2oc(C(=O)O)c(C)c12`, the inhibition in test [1] amounted to 56.7%.

For `CC(C)C[C@@H]1NC(=O)[C@@H](C(C)C)NC(=O)[C@@H]2CCCN2C(=O)[C@@H](CC(=O)O)NC(=O)[C@@H](Cc2c[nH]c3ccccc23)NC1=O` [BQ-123] (cyclo(L[dW][dD]P[dV])), the IC50 turned out to be 28 nM in test [3] and 37 nM in [7]. Further, the inhibition in test [1] came out at 68.1%.

Regarding `CCCCCOc1cccc2oc(C(=O)O)c(C)c12`, the inhibition in test [1] was 46.8%.

Consider `CCCOc1cccc2oc(C(=O)O)c(C)c12`, for which, in [1], the inhibition worked out at 69.7%.

As to `Cc1c(C(=O)O)oc2cccc(OC(C(=O)O)c3ccccc3)c12` (stereo not drawn), in [1], the inhibition is 29%.

For `CCOc1cccc2oc(C(=O)O)c(C)c12`, the inhibition in test [1] came to 61%.

`Cc1c(C(=O)O)oc2cccc(OCc3ccc4nsnc4c3)c12`: the IC50 was 930 nM in test [2] and 23 nM in test [3]. Also, the inhibition in test [1] turned out to be 82.2%. Also, the Ratio IC50 in test [4] turned out to be 40.

As for `Cc1c(C(=O)O)oc2cccc(OC/C=C/c3ccccc3)c12`, the inhibition in test [1] turned out to be 50%.

As for `Cc1ccc(OCCOc2cccc3oc(C(=O)O)c(C)c23)cc1`, in [1], the inhibition turned out to be 40.8%.

As for `Cc1c(C(=O)O)oc2cccc(OC(CCC(=O)O)c3ccccc3)c12` (stereo not drawn), the inhibition in [1] was 44%.

In the case of `COc1cccc2oc(C(=O)O)c(C)c12`, the IC50 in test [8] was 11000 nM.

As to `Cc1c(C(=O)O)oc2cccc(OCCN3CCCC3)c12`, in test [1], the inhibition was 34.1%. Also, the Activity entry in [9] and in [10] was “Dose-dependent effect” throughout.

As for `Cc1c(C(=O)O)oc2cccc(OCc3ccccc3)c12`, the IC50 in test [8] was 3800 nM. In test [1], the inhibition came to 40.7%.
